Measured values from ChEMBL document CHEMBL5038667, “Discovery of an Amino Acid-Modified Near-Infrared Aza-BODIPY Photosensitizer as an Immune Initiator for Potent Photodynamic Therapy in Melanoma” (J Med Chem, 2022).
Values after ≈ are worked out from the molar mass of the structure shown. Active and inactive are the calls of the source. The calls are words filed in the database; no cut-off is given here.

Experiments:
[1] = Aqueous solubility in PBS; format: physicochemical; conditions: buffer
[2] = Lipophilicity, logP of compound; format: physicochemical; conditions: octanol/water
B16-F10 [3] = test: Dark toxicity against mouse B16-F10 cells assessed as reduction in cell viability incubated for 16 hrs by CCK-8 assay; format: cell-based; conditions: B16-F10, 16 h
[4] = Phototoxicity against mouse B16-F10 cells assessed as reduction in cell viability incubated for 16 hrs followed by irradiated with 54 J/cm^2 of light dose and further incubated for 24 hrs by CCK-8 assay; format: toxicity, cell-based; conditions: B16-F10, light or radiation study
A-375 = test: Dark toxicity against human A-375 cells assessed as reduction in cell viability incubated for 16 hrs by CCK-8 assay; format: functional, cell-based; conditions: A-375, 16 h
[5] = Phototoxicity against human A-375 cells assessed as reduction in cell viability incubated for 16 hrs followed by irradiated with 54 J/cm^2 of light dose and further incubated for 24 hrs by CCK-8 assay; format: toxicity, cell-based; conditions: A-375, light or radiation study
HeLa = test: Dark toxicity against human HeLa cells assessed as reduction in cell viability incubated for 16 hrs by CCK-8 assay; format: functional, cell-based
[6] = Phototoxicity against human HeLa cells assessed as reduction in cell viability incubated for 16 hrs followed by irradiated with 54 J/cm^2 of light dose and further incubated for 24 hrs by CCK-8 assay; format: toxicity, cell-based; conditions: light or radiation study
B16-F10 [7] = test: Antitumor activity against mouse B16-F10 cells implanted in C57BL/6 mouse assessed as inhibition of tumor growth at 2 mg/kg, iv irradiated with 60 J/cm^2 laser light by IVIS imaging analysis measured upto 48 hrs; format: functional, organism-based; conditions: time hrs <=48
B16-F10 [8] = test: Antitumor activity against mouse B16-F10 cells implanted in C57BL/6 mouse assessed as tumor regrowth at 2 mg/kg, iv upto after 6 days irradiated with 60 J/cm^2 laser light by IVIS imaging analysis; format: functional, organism-based; conditions: time 6.0 day
[9] = Toxicity in C57BL/6 mouse harboring mouse B16-F10 cells assessed as change in body weight at 2 mg/kg, iv irradiated with 60 J/cm^2 laser light measured upto 14 days; format: organism-based; conditions: in vivo, 336 h, time <=14 day
B16-F10 [10] = test: Antitumor activity against mouse B16-F10 cells implanted in C57BL/6 mouse assessed as tumor destruction at 2 mg/kg, iv irradiated with 60 J/cm^2 laser light measured after 14 days by hematoxylin and eosin based microscopic analysis; format: functional, organism-based; conditions: time 14.0 day

| Structure (SMILES) | solubility [1] | logP [2] | IC50 (B16-F10 [3]) | IC50 [4] | IC50 (A-375) | IC50 [5] | IC50 (HeLa) | IC50 [6] | Activity (B16-F10 [7]) | Activity (B16-F10 [8]) | Activity [9] | Activity (B16-F10 [10]) |
| --- | --- | --- | --- | --- | --- | --- | --- | --- | --- | --- | --- | --- |
| COc1ccc(C2=[N+]3C(=Nc4c(-c5ccccc5)c5c(n4[B-]3(F)F)-c3ccc(OCC(=O)N[C@@H](CCC(=O)O)C(=O)O)cc3CC5)C(c3ccccc3)=C2I)cc1 | 158 µM (≈ 139 µg/mL) | -0.74 | > 250 µM | 159 nM | > 250 µM | 166 nM | > 250 µM | 78 nM | – | – | – | – |
| COc1ccc2c(c1)CCc1c(-c3ccccc3)c3n(c1-2)[B-](F)(F)[N+]1=C(c2ccc(OCC(=O)O)cc2)C(I)=C(c2ccccc2)C1=N3 | 21.8 µM (≈ 16.4 µg/mL) | 0.92 | > 50 µM | 346 nM | > 50 µM | 320 nM | > 50 µM | 274 nM | – | – | – | – |
| COc1ccc(C2=[N+]3C(=Nc4c(-c5ccccc5)c5c(n4[B-]3(F)F)-c3ccc(OCC(=O)O)cc3CC5)C(c3ccccc3)=C2I)cc1 | 28.4 µM (≈ 21.4 µg/mL) | 0.94 | > 50 µM | 104 nM | > 50 µM | 142 nM | > 50 µM | 56 nM | – | – | – | – |
| C=Cc1c(C)c2cc3nc(c(CC(=O)O)c4[nH]c(cc5nc(cc1[nH]2)C(C)=C5CC)c(C)c4C(=O)O)[C@@H](CCC(=O)O)[C@@H]3C [CHLORIN E6] | – | – | – | – | – | – | – | – | inactive | – | Non-Toxic | – |

Now from value to compound, other results behind:

| solubility [1] | logP [2] | Structure (SMILES) | IC50 (B16-F10 [3]) | IC50 [4] | IC50 (A-375) | IC50 [5] | IC50 (HeLa) | IC50 [6] | Activity (B16-F10 [7]) | Activity (B16-F10 [8]) | Activity [9] | Activity (B16-F10 [10]) |
| --- | --- | --- | --- | --- | --- | --- | --- | --- | --- | --- | --- | --- |
| < 1 µM | > 3 | COc1ccc(C2=[N+]3C(=Nc4c(-c5ccccc5)cc(-c5ccc(OC)cc5)n4[B-]3(F)F)C(c3ccccc3)=C2I)cc1 | > 50 µM | 276 nM | > 50 µM | 254 nM | > 50 µM | 76 nM | Active | Active | Non-Toxic | Active |
| 115 µM (≈ 100 µg/mL) | -0.73 | COc1ccc2c(c1)CCc1c(-c3ccccc3)c3n(c1-2)[B-](F)(F)[N+]1=C(c2ccc(OCC(=O)N[C@@H](CC(=O)O)C(=O)O)cc2)C(I)=C(c2ccccc2)C1=N3 | > 250 µM | 126 nM | > 250 µM | 148 nM | > 250 µM | 55 nM | – | – | – | – |
| 110 µM (≈ 96.7 µg/mL) | -0.71 | COc1ccc2c(c1)CCc1c(-c3ccccc3)c3n(c1-2)[B-](F)(F)[N+]1=C(c2ccc(OCC(=O)N[C@@H](CCC(=O)O)C(=O)O)cc2)C(I)=C(c2ccccc2)C1=N3 | > 250 µM | 212 nM | > 250 µM | 284 nM | > 250 µM | 119 nM | – | – | – | – |
| < 1 µM | > 3 | COc1ccc(C2=[N+]3C(=Nc4c(-c5ccccc5)c5c(n4[B-]3(F)F)-c3ccc(OC)cc3CC5)C(c3ccccc3)=C2I)cc1 | – | – | – | – | – | – | – | – | – | – |
